From patent US20140342379A1, “Means and Methods for Assessing Gonadal Toxicity” (BASF SE, priority 2011, published 2014)
Marks after values point to notes of the source that are not given here.

Assays:
female rats = assay: 28-day repeated dose study, plasma metabolite profiling (GC-MS, LC-MS), female rats
male rats = assay: 28-day repeated dose study, plasma metabolite profiling (GC-MS, LC-MS), male rats; type: in vivo, rat
From the text: Drinking water was also offered ad libitum.

CC#C[C@]1(O)CC[C@H]2[C@@H]3CCC4=CC(=O)CCC4=C3[C@@H](c3ccc(N(C)C)cc3)C[C@@]21C [Mifepristone, (11b,17b)-11-[4-(Dimethylamino)phenyl]-17-hydroxy-17-(1-propynyl)estra-4,9-dien-3-one]
3-Methoxytyrosine, plasma, treatment ratio versus control (female rats; day 7): 1.09
Arachidonic acid (C20:cis[5,8,11,14]4), plasma, treatment ratio versus control (female rats; day 7): 0.64*
Campesterol, plasma, treatment ratio versus control (female rats; day 7): 0.61*
Cholesterol, plasma, treatment ratio versus control (female rats; day 7): 0.65*
Choline plasmalogen No 03, plasma, treatment ratio versus control (female rats; day 7): 0.89*
Citrate, plasma, treatment ratio versus control (female rats; day 7): 0.83*
Docosahexaenoic acid (C22:cis[4,7,10,13,16,19]6), plasma, treatment ratio versus control (female rats; day 7): 0.73*
Docosapentaenoic acid (C22:cis[7,10,13,16,19]5), plasma, treatment ratio versus control (female rats; day 7): 0.67
Dodecanol, plasma, treatment ratio versus control (female rats; day 7): 0.59*
Elaidic acid (C18:trans[9]1), plasma, treatment ratio versus control (female rats; day 7): 0.74*
Glycerol phosphate, lipid fraction, plasma, treatment ratio versus control (female rats; day 7): 0.52*
Lysophosphatidylcholine (C20:4), plasma, treatment ratio versus control (female rats; day 7): 0.93
Metanephrine, plasma, treatment ratio versus control (female rats; day 7): 0.9
Phosphatidylcholine (C18:0,C18:1), plasma, treatment ratio versus control (female rats; day 7): 0.85
Phosphatidylcholine (C18:0,C22:6), plasma, treatment ratio versus control (female rats; day 7): 0.87*
Phosphatidylcholine No 04, plasma, treatment ratio versus control (female rats; day 7): 0.67*
Progesterone, plasma, treatment ratio versus control (female rats; day 7): 0.67
alpha-Tocopherol, plasma, treatment ratio versus control (female rats; day 7): 0.75
gamma-Linolenic acid (C18:cis[6,9,12]3), plasma, treatment ratio versus control (female rats; day 7): 0.76
myo-Inositol, lipid fraction, plasma, treatment ratio versus control (female rats; day 7): 0.63*
threo-Sphingosine, plasma, treatment ratio versus control (female rats; day 7): 0.56*
3-Methoxytyrosine, plasma, treatment ratio versus control (female rats; day 14): 1
Arachidonic acid (C20:cis[5,8,11,14]4), plasma, treatment ratio versus control (female rats; day 14): 0.71*
Campesterol, plasma, treatment ratio versus control (female rats; day 14): 0.66*
Cholesterol, plasma, treatment ratio versus control (female rats; day 14): 0.72*
Choline plasmalogen No 03, plasma, treatment ratio versus control (female rats; day 14): 0.77*
Citrate, plasma, treatment ratio versus control (female rats; day 14): 0.94
Docosahexaenoic acid (C22:cis[4,7,10,13,16,19]6), plasma, treatment ratio versus control (female rats; day 14): 0.78*
Docosapentaenoic acid (C22:cis[7,10,13,16,19]5), plasma, treatment ratio versus control (female rats; day 14): 0.97
Dodecanol, plasma, treatment ratio versus control (female rats; day 14): 0.84*
Elaidic acid (C18:trans[9]1), plasma, treatment ratio versus control (female rats; day 14): 0.71*
Glycerol phosphate, lipid fraction, plasma, treatment ratio versus control (female rats; day 14): 0.76
Lysophosphatidylcholine (C20:4), plasma, treatment ratio versus control (female rats; day 14): 0.93
Metanephrine, plasma, treatment ratio versus control (female rats; day 14): 0.61
Phosphatidylcholine (C18:0,C18:1), plasma, treatment ratio versus control (female rats; day 14): 0.8*
Phosphatidylcholine (C18:0,C22:6), plasma, treatment ratio versus control (female rats; day 14): 0.9
Phosphatidylcholine No 04, plasma, treatment ratio versus control (female rats; day 14): 0.8*
Progesterone, plasma, treatment ratio versus control (female rats; day 14): 0.45*
alpha-Tocopherol, plasma, treatment ratio versus control (female rats; day 14): 0.76*
gamma-Linolenic acid (C18:cis[6,9,12]3), plasma, treatment ratio versus control (female rats; day 14): 0.69
myo-Inositol, lipid fraction, plasma, treatment ratio versus control (female rats; day 14): 0.77*
threo-Sphingosine, plasma, treatment ratio versus control (female rats; day 14): 0.79
3-Methoxytyrosine, plasma, treatment ratio versus control (female rats; day 28): 1.09
Arachidonic acid (C20:cis[5,8,11,14]4), plasma, treatment ratio versus control (female rats; day 28): 0.78
Campesterol, plasma, treatment ratio versus control (female rats; day 28): 0.83
Cholesterol, plasma, treatment ratio versus control (female rats; day 28): 0.76
Choline plasmalogen No 03, plasma, treatment ratio versus control (female rats; day 28): 0.74*
Citrate, plasma, treatment ratio versus control (female rats; day 28): 0.89*
Docosahexaenoic acid (C22:cis[4,7,10,13,16,19]6), plasma, treatment ratio versus control (female rats; day 28): 0.75*
Docosapentaenoic acid (C22:cis[7,10,13,16,19]5), plasma, treatment ratio versus control (female rats; day 28): 1
Dodecanol, plasma, treatment ratio versus control (female rats; day 28): 0.86
Elaidic acid (C18:trans[9]1), plasma, treatment ratio versus control (female rats; day 28): 0.79
Glycerol phosphate, lipid fraction, plasma, treatment ratio versus control (female rats; day 28): 0.79
Lysophosphatidylcholine (C20:4), plasma, treatment ratio versus control (female rats; day 28): 0.87*
Metanephrine, plasma, treatment ratio versus control (female rats; day 28): 0.81
Phosphatidylcholine (C18:0,C18:1), plasma, treatment ratio versus control (female rats; day 28): 0.7*
Phosphatidylcholine (C18:0,C22:6), plasma, treatment ratio versus control (female rats; day 28): 0.99
Phosphatidylcholine No 04, plasma, treatment ratio versus control (female rats; day 28): 0.69*
Progesterone, plasma, treatment ratio versus control (female rats; day 28): 0.38*
alpha-Tocopherol, plasma, treatment ratio versus control (female rats; day 28): 0.61*
gamma-Linolenic acid (C18:cis[6,9,12]3), plasma, treatment ratio versus control (female rats; day 28): 0.73*
myo-Inositol, lipid fraction, plasma, treatment ratio versus control (female rats; day 28): 0.86
threo-Sphingosine, plasma, treatment ratio versus control (female rats; day 28): 0.79

CCCCOCCO [2-Butoxyethanol]
18-Hydroxy-11-deoxycorticosterone, plasma, treatment ratio versus control (male rats; day 7): 0.18*
Alanine, plasma, treatment ratio versus control (male rats; day 7): 0.83*
Arachidonic acid (C20:cis[5,8,11,14]4), plasma, treatment ratio versus control (male rats; day 7): 0.86*
Coenzyme Q9, plasma, treatment ratio versus control (male rats; day 7): 0.83*
Creatinine, plasma, treatment ratio versus control (male rats; day 7): 1.03
DAG (C18:1, C18:2), plasma, treatment ratio versus control (male rats; day 7): 0.99
Fructose-6-phosphate, plasma, treatment ratio versus control (male rats; day 7): 0.84
Galactose, lipid fraction, plasma, treatment ratio versus control (male rats; day 7): 0.8*
Glucosamine, plasma, treatment ratio versus control (male rats; day 7): 1
Glucose, plasma, treatment ratio versus control (male rats; day 7): 0.81*
Glycerol, polar fraction, plasma, treatment ratio versus control (male rats; day 7): 0.86*
Heneicosanoic acid (C21:0), plasma, treatment ratio versus control (male rats; day 7): 0.88
Lactate, plasma, treatment ratio versus control (male rats; day 7): 0.93*
Linolenic acid (C18:cis[9,12,15]3), plasma, treatment ratio versus control (male rats; day 7): 1.01
Lysine, plasma, treatment ratio versus control (male rats; day 7): 0.81*
Malate, plasma, treatment ratio versus control (male rats; day 7): 0.81*
Oleic acid (C18:cis[9]1), plasma, treatment ratio versus control (male rats; day 7): 0.98
Palmitoleic acid (C16:cis[9]1), plasma, treatment ratio versus control (male rats; day 7): 0.94
Phenylalanine, plasma, treatment ratio versus control (male rats; day 7): 0.87*
Phosphate (inorganic and organic phosphates), plasma, treatment ratio versus control (male rats; day 7): 1.05
Pyruvate, plasma, treatment ratio versus control (male rats; day 7): 1.1
Spermidine, plasma, treatment ratio versus control (male rats; day 7): 0.67*
TAG (C16:0,C16:1), plasma, treatment ratio versus control (male rats; day 7): 1.16
Uracil, plasma, treatment ratio versus control (male rats; day 7): 0.77*
myo-Inositol, plasma, treatment ratio versus control (male rats; day 7): 0.88
trans-4-Hydroxyproline, plasma, treatment ratio versus control (male rats; day 7): 1.03
18-Hydroxy-11-deoxycorticosterone, plasma, treatment ratio versus control (male rats; day 14): 0.44*
Alanine, plasma, treatment ratio versus control (male rats; day 14): 0.93
Arachidonic acid (C20:cis[5,8,11,14]4), plasma, treatment ratio versus control (male rats; day 14): 0.84
Coenzyme Q9, plasma, treatment ratio versus control (male rats; day 14): 0.5*
Creatinine, plasma, treatment ratio versus control (male rats; day 14): 1.34*
DAG (C18:1, C18:2), plasma, treatment ratio versus control (male rats; day 14): 0.69*
Fructose-6-phosphate, plasma, treatment ratio versus control (male rats; day 14): 1.11
Galactose, lipid fraction, plasma, treatment ratio versus control (male rats; day 14): 0.86
Glucosamine, plasma, treatment ratio versus control (male rats; day 14): 0.88
Glucose, plasma, treatment ratio versus control (male rats; day 14): 0.73*
Glycerol, polar fraction, plasma, treatment ratio versus control (male rats; day 14): 0.95
Heneicosanoic acid (C21:0), plasma, treatment ratio versus control (male rats; day 14): 0.86*
Lactate, plasma, treatment ratio versus control (male rats; day 14): 0.86
Linolenic acid (C18:cis[9,12,15]3), plasma, treatment ratio versus control (male rats; day 14): 0.9*
Lysine, plasma, treatment ratio versus control (male rats; day 14): 1
Malate, plasma, treatment ratio versus control (male rats; day 14): 0.79*
Oleic acid (C18:cis[9]1), plasma, treatment ratio versus control (male rats; day 14): 0.8*
Palmitoleic acid (C16:cis[9]1), plasma, treatment ratio versus control (male rats; day 14): 0.77
Phenylalanine, plasma, treatment ratio versus control (male rats; day 14): 0.94*
Phosphate (inorganic and organic phosphates), plasma, treatment ratio versus control (male rats; day 14): 1.03
Pyruvate, plasma, treatment ratio versus control (male rats; day 14): 0.78
Spermidine, plasma, treatment ratio versus control (male rats; day 14): 0.68*
TAG (C16:0,C16:1), plasma, treatment ratio versus control (male rats; day 14): 0.66*
Uracil, plasma, treatment ratio versus control (male rats; day 14): 0.9
myo-Inositol, plasma, treatment ratio versus control (male rats; day 14): 0.82*
trans-4-Hydroxyproline, plasma, treatment ratio versus control (male rats; day 14): 1.21*
18-Hydroxy-11-deoxycorticosterone, plasma, treatment ratio versus control (male rats; day 28): 0.68*
Alanine, plasma, treatment ratio versus control (male rats; day 28): 0.91*
Arachidonic acid (C20:cis[5,8,11,14]4), plasma, treatment ratio versus control (male rats; day 28): 0.84
Coenzyme Q9, plasma, treatment ratio versus control (male rats; day 28): 0.83
Creatinine, plasma, treatment ratio versus control (male rats; day 28): 1.19*
DAG (C18:1, C18:2), plasma, treatment ratio versus control (male rats; day 28): 0.78
Fructose-6-phosphate, plasma, treatment ratio versus control (male rats; day 28): 0.61*
Galactose, lipid fraction, plasma, treatment ratio versus control (male rats; day 28): 0.71*
Glucosamine, plasma, treatment ratio versus control (male rats; day 28): 1.3*
Glucose, plasma, treatment ratio versus control (male rats; day 28): 0.93*
Glycerol, polar fraction, plasma, treatment ratio versus control (male rats; day 28): 0.87*
Heneicosanoic acid (C21:0), plasma, treatment ratio versus control (male rats; day 28): 0.96
Lactate, plasma, treatment ratio versus control (male rats; day 28): 0.72*
Linolenic acid (C18:cis[9,12,15]3), plasma, treatment ratio versus control (male rats; day 28): 0.99
Lysine, plasma, treatment ratio versus control (male rats; day 28): 0.86*
Malate, plasma, treatment ratio versus control (male rats; day 28): 0.7*
Oleic acid (C18:cis[9]1), plasma, treatment ratio versus control (male rats; day 28): 0.91
Palmitoleic acid (C16:cis[9]1), plasma, treatment ratio versus control (male rats; day 28): 0.77
Phenylalanine, plasma, treatment ratio versus control (male rats; day 28): 0.95*
Phosphate (inorganic and organic phosphates), plasma, treatment ratio versus control (male rats; day 28): 1.02*
Pyruvate, plasma, treatment ratio versus control (male rats; day 28): 0.72*
Spermidine, plasma, treatment ratio versus control (male rats; day 28): 0.77*
TAG (C16:0,C16:1), plasma, treatment ratio versus control (male rats; day 28): 1.06
Uracil, plasma, treatment ratio versus control (male rats; day 28): 0.71*
myo-Inositol, plasma, treatment ratio versus control (male rats; day 28): 0.93*
trans-4-Hydroxyproline, plasma, treatment ratio versus control (male rats; day 28): 1.15

C#CC1(O)CCC2C3CCc4cc(O)ccc4C3CCC21C (stereo not drawn) [17-alpha-Ethynylestradiol, 17-ethynyl-13-methyl-7,8,9,11,12,13,14,15,16,17-decahydro-6H-cyclopenta[a]phenanthrene-3,17-diol]
3-Hydroxybutyrate, plasma, treatment ratio versus control (male rats; day 7): 0.71
3-O-Methylsphingosine (d18:1), plasma, treatment ratio versus control (male rats; day 7): 0.06
Campesterol, plasma, treatment ratio versus control (male rats; day 7): 0.08
Cholesterol, plasma, treatment ratio versus control (male rats; day 7): 0.05
Coenzyme Q9, plasma, treatment ratio versus control (male rats; day 7): 0.09*
Coenzyme Q10, plasma, treatment ratio versus control (male rats; day 7): 0.09*
Glutamine, plasma, treatment ratio versus control (male rats; day 7): 0.84
Histidine, plasma, treatment ratio versus control (male rats; day 7): 2.33*
Lysine, plasma, treatment ratio versus control (male rats; day 7): 1.47
Palmitoleic acid (C16:cis[9]1), plasma, treatment ratio versus control (male rats; day 7): 0.2
Stearic acid (C18:0), plasma, treatment ratio versus control (male rats; day 7): 0.18
Threonine, plasma, treatment ratio versus control (male rats; day 7): 1.44*
erythro-Sphingosine, plasma, treatment ratio versus control (male rats; day 7): 0.03
3-Hydroxybutyrate, plasma, treatment ratio versus control (male rats; day 14): 0.23*
3-O-Methylsphingosine (d18:1), plasma, treatment ratio versus control (male rats; day 14): 0.35*
Campesterol, plasma, treatment ratio versus control (male rats; day 14): 0.6*
Cholesterol, plasma, treatment ratio versus control (male rats; day 14): 0.57*
Coenzyme Q9, plasma, treatment ratio versus control (male rats; day 14): 0.86
Coenzyme Q10, plasma, treatment ratio versus control (male rats; day 14): 0.36*
Glutamine, plasma, treatment ratio versus control (male rats; day 14): 0.91
Histidine, plasma, treatment ratio versus control (male rats; day 14): 2.16*
Lignoceric acid (C24:0), plasma, treatment ratio versus control (male rats; day 14): 0.47*
Lysine, plasma, treatment ratio versus control (male rats; day 14): 1.4*
Palmitoleic acid (C16:cis[9]1), plasma, treatment ratio versus control (male rats; day 14): 1.28
Stearic acid (C18:0), plasma, treatment ratio versus control (male rats; day 14): 0.67*
Threonine, plasma, treatment ratio versus control (male rats; day 14): 1.85*
erythro-Sphingosine, plasma, treatment ratio versus control (male rats; day 14): 0.45*
